This note sets out measurements from US11339161B2, “Triazolo pyridines as modulators of gamma-secretase” (Boehringer Ingelheim International GmbH, priority 2017, dated 2022).

Read-outs that look alike come from different tables or passages of the source.

The target of experiment [1] is ABL1 (Homo sapiens, UniProt P00519). Description: Z'-LYTE SelectScreen biochemical kinase assay ABL1. The text has this:
(§1) Thermo Fisher Scientific SelectScreen™ Biochemical Kinase Profiling Service Z′-LYTE™ Screening Protocol and Assay Conditions Assay Theory
(§2) The […] biochemical assay employs a fluorescence-based, coupled-enzyme format and is based on the differential sensitivity of phosphorylated and non-phosphorylated peptides to proteolytic cleavage. The peptide substrate is labeled with two fluorophores—one at each end—that make up a FRET pair. In the primary reaction, the kinase transfers the gamma-phosphate of ATP to a single tyrosine, serine or threonine residue in a synthetic FRET-peptide. In the secondary reaction, a site-specific protease recognizes and cleaves non-phosphorylated FRET-peptides. Phosphorylation of FRET-peptides suppresses cleavage by the Development Reagent. Cleavage disrupts FRET between the donor (i.e., coumarin) and acceptor (i.e., fluorescein) fluorophores on the FRET-peptide, whereas uncleaved, phosphorylated FRET-peptides maintain FRET. A ratiometric method, which calculates the ratio (Emission Ratio=Coumarin emission (445 nm)/Fluorescein emission (520 nm)) of donor emission to acceptor emission after excitation of the donor fluorophore at 400 nm, is used to quantitate reaction progress, as shown in the equation below. A significant benefit of this ratiometric method for quantitating reaction progress is the elimination of well-to-well variations in FRET-peptide concentration and signal intensities. As a result, the assay yields very high Z′-factor values (>0.7) at a low percent phosphorylation. Both cleaved and uncleaved FRET-peptides contribute to the fluorescence signals and therefore to the Emission Ratio. The extent of phosphorylation of the FRET-peptide can be calculated from the Emission Ratio. The Emission Ratio will remain low if the FRET-peptide is phosphorylated (i.e., no kinase inhibition) and will be high if the FRET-peptide is non-phosphorylated (i.e., kinase inhibition).
(§3) The Test Compounds are screened in 1% DMSO (final) in the well. For 10 point titrations, 3-fold serial dilutions are conducted from the starting concentration of the customer's choosing.
(§4) All Peptide/Kinase Mixtures are diluted to a 2× working concentration in the appropriate Kinase Buffer (see section Kinase Specific Assay Conditions for a complete description).
(§5) All ATP Solutions are diluted to a 4× working concentration in Kinase Buffer (50 mM HEPES pH 7.5, 0.01% BRIJ-35, 10 mM MgCl2, 1 mM EGTA). ATP Km apparent is previously determined using a Z″-LYTE assay.
(§6) The Development Reagent is diluted in Development Buffer (see section Kinase-Specific Assay Conditions—Direct and Cascade for a complete description).
(§7) Bar-coded Corning, low volume NBS, black 384-well plate (Corning Cat. #4514) • 1. 100 nL—100× Test Compound in 100% DMSO • 2. 2.4 μL—Kinase buffer • 3. 5 μL—2× Peptide/Kinase Mixture • 4. 2.5 μL—4×ATP Solution • 5. 30—second plate shake • 6. 60—minute Kinase Reaction incubation at room temperature • 7. 5 μL—Development Reagent Solution • 8. 30—second plate shake • 9. 60—minute Development Reaction incubation at room temperature • 10. Read on fluorescence plate reader and analyze the data Z′-LYTE Assay Controls
(§8) SelectScreen Kinase Profiling Service uses XLfit from IDBS. The dose response curve is curve fit to model number 205 (sigmoidal dose-response model).
The 2×ABL1/Tyr 02 mixture is prepared in 50 mM HEPES pH 7.5, 0.01% BRIJ-35, 10 mM MgCl2, 1 mM EGTA. The final 10 μL Kinase Reaction consists of 0.29-1.26 ng ABL1 and 2 μM Tyr 02 in 50 mM HEPES pH 7.5, 0.01% BRIJ-35, 10 mM MgCl2, 1 mM EGTA. After the 1 hour Kinase Reaction incubation, 5 μL of a 1:128 dilution of Development Reagent A is added.

In experiment [2] the target is CDK5/p35 (Homo sapiens, UniProt Q00535). Description: Z'-LYTE SelectScreen biochemical kinase assay CDK5/p35.
Source text: as §1, §2, §3, §4, §5, §6, §7, §8
The 2×CDK5/p35/Ser/Thr 12 mixture is prepared in 50 mM HEPES pH 7.5, 0.01% BRIJ-35, 10 mM MgCl2, 1 mM EGTA. The final 10 μL Kinase Reaction consists of 0.14-1.3 ng CDK5/p35 and 2 μM Ser/Thr 12 in 50 mM HEPES pH 7.5, 0.01% BRIJ-35, 10 mM MgCl2, 1 mM EGTA. After the 1 hour Kinase Reaction incubation, 5 μL of a 1:4096 dilution of Development Reagent A is added.

In experiment [3] the target is FGFR1 (Homo sapiens, UniProt P11362). Description: Z'-LYTE SelectScreen biochemical kinase assay FGFR1.
Source text: as §1, §2, §3, §4, §5, §6, §7, §8
The 2×FGFR1/Tyr 04 mixture is prepared in 50 mM HEPES pH 7.5, 0.01% BRIJ-35, 10 mM MgCl2, 4 mM MnCl2, 1 mM EGTA, 2 mM DTT. The final 10 μL Kinase Reaction consists of 0.44-2.45 ng FGFR1 and 2 μM Tyr 04 in 50 mM HEPES pH 7.5, 0.01% BRIJ-35, 10 mM MgCl2, 2 mM MnCl2, 1 mM EGTA, 1 mM DTT. After the 1 hour Kinase Reaction incubation, 5 μL of a 1:64 dilution of Development Reagent B is added.

The test system of experiment [4] is Aβ total. The experiment can be described thus: Aβ total levels in H4 neuroglioma cells stably expressing human APP695 (MSD electrochemiluminescence). The experiment is classed as cell-based. The settings on record: selectivity ratio vs. Aβtotal. The procedure:
Cells were plated out to near confluency. The compounds to be tested were received as 10 mM stocks in 100% DMSO. A dilution series was initially generated in 100% DMSO and then diluted 200-fold in cell culture media such that the tested concentration range was 30 μM to 0.1 nM and the final DMSO concentration was 0.5%. The diluted compounds were incubated with the cells for 22 hours in an incubator at 37° C. and 5% CO2. Aβ42 levels were measured post-incubation from the supernatant of the cells using an Aβ42 specific electrochemiluminescence assay provided by Meso Scale Discovery (Catalog #L21CA-1). The measurement of Aβ42 levels were performed according to the manufacturer's protocol.
Aβ total levels were likewise determined using a specific electrochemiluminescence assay provided by Meso Scale Discovery (Catalog #L21ZA-1) according to the manufacturer's protocol.

Where [5] appears, read: 10 μmolar compound concentration, ATP at Km app, read-out: ABL1 inhibition.
The mark [6] stands for this setting: read-out: % Inhibition mean ABL1.
The mark [7] stands for this setting: 10 μmolar compound concentration, ATP at Km app, read-out: CDK5/p35 inhibition.
[8] abbreviates: read-out: % Inhibition mean CDK5/p35.
[9] abbreviates: 10 μmolar compound concentration, ATP at Km app, read-out: FGFR1 inhibition.
Where [10] appears, read: read-out: % Inhibition mean FGFR1.

FGFR1, sequence (P11362 22-822): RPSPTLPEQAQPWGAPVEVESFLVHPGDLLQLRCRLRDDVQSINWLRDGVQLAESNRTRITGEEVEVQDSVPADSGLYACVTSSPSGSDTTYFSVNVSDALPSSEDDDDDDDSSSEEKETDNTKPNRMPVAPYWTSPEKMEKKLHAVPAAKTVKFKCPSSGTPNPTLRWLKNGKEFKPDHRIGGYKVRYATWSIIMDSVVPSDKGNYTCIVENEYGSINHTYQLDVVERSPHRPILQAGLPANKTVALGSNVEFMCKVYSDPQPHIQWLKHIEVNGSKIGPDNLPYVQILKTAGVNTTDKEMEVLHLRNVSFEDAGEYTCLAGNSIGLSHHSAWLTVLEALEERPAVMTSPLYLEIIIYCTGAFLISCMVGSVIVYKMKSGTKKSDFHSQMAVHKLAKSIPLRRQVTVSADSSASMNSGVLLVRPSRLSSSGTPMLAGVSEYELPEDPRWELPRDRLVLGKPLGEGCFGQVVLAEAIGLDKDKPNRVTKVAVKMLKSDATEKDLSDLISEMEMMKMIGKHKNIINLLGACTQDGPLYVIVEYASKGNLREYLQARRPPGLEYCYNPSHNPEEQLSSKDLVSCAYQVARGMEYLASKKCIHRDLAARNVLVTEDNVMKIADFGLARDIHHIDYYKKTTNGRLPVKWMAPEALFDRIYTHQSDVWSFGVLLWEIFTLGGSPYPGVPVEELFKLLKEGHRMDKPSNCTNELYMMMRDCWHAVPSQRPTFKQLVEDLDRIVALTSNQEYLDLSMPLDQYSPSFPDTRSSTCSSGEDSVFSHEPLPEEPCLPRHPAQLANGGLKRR
CDK5/p35, sequence (Q00535 whole entry): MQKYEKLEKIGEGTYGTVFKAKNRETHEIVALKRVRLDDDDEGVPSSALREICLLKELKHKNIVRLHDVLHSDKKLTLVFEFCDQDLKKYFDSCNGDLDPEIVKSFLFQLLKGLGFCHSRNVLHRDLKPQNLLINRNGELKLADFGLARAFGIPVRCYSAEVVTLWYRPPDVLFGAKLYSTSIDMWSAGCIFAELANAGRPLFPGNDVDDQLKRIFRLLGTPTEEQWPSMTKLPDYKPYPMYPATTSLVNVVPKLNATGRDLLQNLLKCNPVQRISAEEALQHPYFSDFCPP
CDK5/p35, sequence (Q15078 whole entry partner): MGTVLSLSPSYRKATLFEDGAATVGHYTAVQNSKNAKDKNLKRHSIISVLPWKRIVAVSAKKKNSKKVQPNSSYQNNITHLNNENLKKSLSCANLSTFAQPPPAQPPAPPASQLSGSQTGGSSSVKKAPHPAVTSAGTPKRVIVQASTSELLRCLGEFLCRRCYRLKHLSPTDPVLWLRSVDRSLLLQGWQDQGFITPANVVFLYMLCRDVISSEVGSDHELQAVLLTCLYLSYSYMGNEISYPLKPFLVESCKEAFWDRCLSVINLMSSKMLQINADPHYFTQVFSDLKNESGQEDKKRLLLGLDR
ABL1, sequence (P00519 whole entry): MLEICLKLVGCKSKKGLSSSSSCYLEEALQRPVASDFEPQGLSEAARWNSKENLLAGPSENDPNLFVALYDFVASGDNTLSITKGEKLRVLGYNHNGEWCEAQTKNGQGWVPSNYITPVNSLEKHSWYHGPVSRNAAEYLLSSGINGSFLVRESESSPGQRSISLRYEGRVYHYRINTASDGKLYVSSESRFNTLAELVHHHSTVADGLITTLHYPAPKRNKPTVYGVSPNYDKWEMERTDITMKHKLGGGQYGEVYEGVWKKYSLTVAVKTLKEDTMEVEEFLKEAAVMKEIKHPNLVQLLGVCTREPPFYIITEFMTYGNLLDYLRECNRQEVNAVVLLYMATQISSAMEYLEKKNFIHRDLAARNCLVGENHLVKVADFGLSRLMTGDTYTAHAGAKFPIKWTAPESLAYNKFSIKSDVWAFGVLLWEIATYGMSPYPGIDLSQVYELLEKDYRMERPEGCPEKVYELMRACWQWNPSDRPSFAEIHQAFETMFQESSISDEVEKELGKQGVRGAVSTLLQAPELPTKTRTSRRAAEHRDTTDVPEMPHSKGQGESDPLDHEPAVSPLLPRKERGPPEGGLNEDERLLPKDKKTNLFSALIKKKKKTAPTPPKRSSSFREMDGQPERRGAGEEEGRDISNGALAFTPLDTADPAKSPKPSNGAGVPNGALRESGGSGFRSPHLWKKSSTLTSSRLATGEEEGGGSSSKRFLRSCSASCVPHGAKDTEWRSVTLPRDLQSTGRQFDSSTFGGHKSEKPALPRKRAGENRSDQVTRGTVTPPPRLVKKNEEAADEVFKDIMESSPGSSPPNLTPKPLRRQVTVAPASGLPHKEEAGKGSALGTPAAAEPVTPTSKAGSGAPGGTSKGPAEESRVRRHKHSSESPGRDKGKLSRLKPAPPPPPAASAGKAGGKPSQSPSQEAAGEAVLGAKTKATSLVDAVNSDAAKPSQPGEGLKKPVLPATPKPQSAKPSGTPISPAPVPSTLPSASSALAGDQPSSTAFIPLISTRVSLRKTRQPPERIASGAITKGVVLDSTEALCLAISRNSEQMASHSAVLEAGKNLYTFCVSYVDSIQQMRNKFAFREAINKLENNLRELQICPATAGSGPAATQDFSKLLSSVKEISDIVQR

Consider `CCn1ncc2c1CCC(Nc1nc3c(-c4ccc(F)cc4C)cccn3n1)C2` (stereo not drawn) [Example 42, (1-Ethyl-4,5,6,7-tetrahydro-1H-indazol-5-yl)-[8-(4-fluoro-2-methyl-phenyl)-[1,2,4]triazolo[1,5-a]pyridine-2-yl]-amine], for which the inhibition at 10 µM is below 40% in experiment [1] (setting [5]); 19% in experiment [1] (setting [6]); below 40% in experiment [2] (setting [7]); 39% in experiment [2] (setting [8]); below 40% in experiment [3] (setting [9]); 16% in experiment [3] (setting [10]). For the same compound, the “Ratio AβTotal IC50/Aβ42 IC50” value in experiment [4] (Table 4a) was determined as 23.

For the compound `CCn1ncc2c1CCC(Nc1nc3c(-c4cncc(Cl)c4)cccn3n1)C2` (stereo not drawn) [Example 73, [8-(5-Chloro-pyridin-3-yl)-[1,2,4]triazolo[1,5-a]pyridine-2-yl]-(1-ethyl-4,5,6,7-tetrahydro-1H-indazol-5-yl)-amine], the inhibition at 10 µM is below 40% in experiment [1] (setting [5]); 21% in experiment [1] (setting [6]); 40 to 80% in experiment [2] (setting [7]); 56% in experiment [2] (setting [8]); below 40% in experiment [3] (setting [9]); 32% in experiment [3] (setting [10]). Further, in experiment [4] (Table 4a), the “Ratio AβTotal IC50/Aβ42 IC50” value was found to be 420.

For `CCn1ncc2c1C(C)CC(Nc1nc3c(-c4cc(F)c(F)c(F)c4)cccn3n1)C2` (stereo not drawn) [Example 49, (1-Ethyl-7-methyl-4,5,6,7-tetrahydro-1H-indazol-5-yl)-[8-(3,4,5-trifluoro-phenyl)-[1,2,4]triazolo[1,5-a]pyridine-2-yl]-amine], the inhibition at 10 µM in experiment [1] (setting [5]) is below 40%; in experiment [1] (setting [6]) it was 15%; in experiment [2] (setting [7]) it was below 40%; in experiment [2] (setting [8]), 7%; in experiment [3] (setting [9]), below 40%; in experiment [3] (setting [10]) it was 9%. Besides, the “Ratio AβTotal IC50/Aβ42 IC50” value in experiment [4] (Table 4a) turned out to be 15.

Regarding `CC1(C)C(=O)Nc2ccc(Nc3nc4c(-c5cccc(F)c5)cccn4n3)cc21` [Cpd. 263 in WO09155551, reference compound], the inhibition at 10 µM was above 80% in experiment [1] (setting [5]); 99% in experiment [1] (read-out: % Inhibition mean); above 80% in experiment [2] (setting [7]); 83% in experiment [2] (read-out: % Inhibition mean); above 80% in experiment [3] (setting [9]); 99% in experiment [3] (read-out: % Inhibition mean). In addition, in experiment [4] (prior art compounds, Table 4b), the “Ratio AβTotal IC50/Aβ42 IC50” value was 2.

With `CCn1ncc2c1CCC(Nc1nc3c(-c4cnccc4OC)cccn3n1)C2` (stereo not drawn) [Example 68, (1-Ethyl-4,5,6,7-tetrahydro-1H-indazol-5-yl)-[8-(4-methoxy-pyridin-3-yl)-[1,2,4]triazolo[1,5-a]pyridine-2-yl]-amine], the inhibition at 10 µM in experiment [1] (setting [5]) is below 40%; in experiment [1] (setting [6]), 28%; in experiment [2] (setting [7]), 40 to 80%; in experiment [2] (setting [8]), 44%; in experiment [3] (setting [9]) it was below 40%; in experiment [3] (setting [10]), 23%. In addition, the “Ratio AβTotal IC50/Aβ42 IC50” value in experiment [4] (Table 4a) is reported as 241.

Consider `CCCn1ncc2c1CCC(Nc1nc3c(-c4ccc(F)cc4C)cccn3n1)C2` (stereo not drawn) [Example 43, [8-(4-fluoro-2-methyl-phenyl)-[1,2,4]triazolo[1,5-a]pyridine-2-yl]-(1-propyl-4,5,6,7-tetrahydro-1H-indazol-5-yl)-amine], for which the inhibition at 10 µM in experiment [1] (setting [5]) is below 40%; in experiment [1] (setting [6]), 17%; in experiment [2] (setting [7]), below 40%; in experiment [2] (setting [8]), 36%; in experiment [3] (setting [9]) it was below 40%; in experiment [3] (setting [10]) it was 15%. Besides, in experiment [4] (Table 4a), the “Ratio AβTotal IC50/Aβ42 IC50” value is 48.

As to `CCn1ncc2c1CC[C@@H](Nc1nc3c(-c4ccc(F)cc4C)cccn3n1)C2` [Example R-42, (R)-(1-Ethyl-4,5,6,7-tetrahydro-1H-indazol-5-yl)-[8-(4-fluoro-2-methyl-phenyl)-[1,2,4]triazolo[1,5-a]pyridine-2-yl]-amine], the inhibition at 10 µM was below 40% in experiment [1] (setting [5]); 14% in experiment [1] (setting [6]); below 40% in experiment [2] (setting [7]); 39% in experiment [2] (setting [8]); below 40% in experiment [3] (setting [9]); 16% in experiment [3] (setting [10]).
